Data published in patent US11760733B2, “Small molecule regulators of mitochondrial fusion and methods of use thereof” (Washington University, priority 2017, dated 2023).

Key:
[1] = target: T1, Mfn2 HR2 target peptide (Homo sapiens, UniProt O95140); assay: HR1 peptide-HR2 target binding assay
T1 construct: Gly linker (GGGG after the His tag)
T1 sequence (O95140 with tags, fused parts or gaps limits assumed): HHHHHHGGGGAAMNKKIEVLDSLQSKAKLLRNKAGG
Text: The Mfn-derived fusion-promoting and -inhibiting mini-peptides (simulated to obtain the chemical Mfn agonists in TABLE 1 and TABLE 2) were modified from amino acid heptad repeats (HR) in the HR1 domain and predicted to interact with their counterparts in the carboxyl terminus HR2 domain within the Mfn stalk region (see e.g., FIG. 1, top panel). A high-throughput binding assay was designed whereby the target HR2 peptide sequences, modified to include amino terminal 6×His tags and Gly linkers, were bonded to Ni-chelate resin (20 μg/ml) and used as immobilized “receptor” for amino-FITC-tagged Mfn2 374-384 (agonist ligand) in which the Ser analogous to Ser378 was replaced with Asp to confer the negative charge essential for activity. For antagonist studies the ligand was amino-FITC-tagged Mfn2 406-418. The FITC peptide ligands are suspended at 1 mM in 30% DMSO, 70% water (to minimize spontaneous aggregation) and diluted into binding buffer (de-ionized water) to a final concentration of 25 μM in the presence or absence of competing compound. Dose-dependent loss of resin-bound FITC signal (485 nm excitation/538 nm emission) measured in a 96 well spectrofluorometer represents binding of compound to its HR2 target (see e.g., FIG. 10, FIG. 11). Either the ligand peptide or the receptor peptide can be modified to represent mutations, variations, or posttranslational modifications of Mfn2. […]
Target HR2 peptide sequence modified to include amino terminal 6×His tags and Gly linkers, were bonded to Ni-NTA resin (4.4 μg/ml) (Quiagen) and used as immobilized “receptor” for amino-FITC-tagged Mfn2 374-384 (ligand) in which the Ser analogous to Ser378 was replaced with Asp to confer the negative charge essential for activity. […] Resin-bound FITC signal (485 nm excitation/538 nm emission) measured in a 96 well spectrofluorometer (Spectramax M5e, Molecular Devices) represented binding to HR2 target. Competition binding isotherms were plotted and IC50 values calculated using Prism 7 (Graph Pad).

[2] = system: ALS and HD patient-derived fibroblasts; assay: Mitochondrial health in ALS and HD patient-derived fibroblasts; assay type: cell-based, human
Procedure: HD patient-derived fibroblast cell lines (GM04693 from patient and GM05539 from patient) were purchased from Invitrogen. ALS patient-derived fibroblasts (ALS 1: ND29509 from patient having SOD1 mutation; ALS 2: ND30327 having FUS1 mutation) and fibroblasts of control healthy individuals were purchased from Coriell Institute, USA. All fibroblast cultures were maintained in MEM supplemented with 15% (v/v) FBS and 1% (v/v) penicillin/streptomycin at 37° C. in 5% CO2-95% air. Galactose media was used, to increase mitochondria-dependent metabolism oxidative phosphorylation. Human fibroblasts were switched to grow for 48 h in DMEM deprived of glucose and containing galactose (4.5 g/l), 1% FBS, 5 mM sodium pyruvate and 2 mM L-glutamine for the studies.
Cells cultured in 8-well chamber slides were washed with cold PBS, fixed in 4% formaldehyde, and permeabilized with 0.1% Triton X-100. After incubation with 2% normal goat serum (to block nonspecific staining), fixed cells were incubated overnight at 4° C. with TOM20 antibody (1:500) (Santa Cruz, USA). Cells were washed with PBS and incubated for 60 minutes with FITC-conjugated goat anti-rabbit IgG (1:500 dilution). The cells were then washed gently with PBS and counterstained with Hoechst 33342 (1:10,000 dilution, Molecular Probes) to visualize nuclei. The coverslips were mounted with Slow-fade anti-fade reagent (Invitrogen), and images were acquired at 60× using an All-in-One Fluorescence Microscope BZ-X700 (Keyence).
Cells were incubated with tetra-methyl-rhodamine methyl ester (TMRM, 25 nM, Invitrogen) in HBSS (Hank's balanced salt solution) for 30 min at 37° C., per the manufacture's protocol, and the fluorescence was analyzed to measure mitochondrial membrane potential. All data were normalized with respect to the fluorescence intensity of control cells. To determine mitochondrial ROS production, cells were treated with 5 μM MitoSOX™ Red, a mitochondrial superoxide indicator (Invitrogen) for 20 min at 37° C., according to the manufacturer's protocol, and fluorescence was analyzed using SpectraMax M2e (Molecular devices).

CC1CCCCC1NC(=O)NCCSc1nnc(C2CC2)n1-c1ccccc1 (racemic) [B-A/I, 1-(2-((5-cyclopropyl-4-phenyl-4H-1,2,4-triazol-3-yl)thio)ethyl)-3-(2-methylcyclohexyl)urea]
competition for minipeptide binding at MFN2 HR2 site [1]: competed for minipeptide binding | mitochondrial structural defects ([2]; ALS and HD fibroblasts): enhances mitochondrial structural defects | mitochondrial ROS levels ([2]; ALS and HD fibroblasts, MitoSOX): reduces mitochondrial ROS levels | mitochondrial membrane potential ([2]; ALS and HD fibroblasts, TMRM): improves mitochondrial membrane potential | effect on fibroblasts from control subjects ([2]; control fibroblasts): no effect
